Results as given in publication PMC12040169 (PLOS Biology, 2025).

Experiment: in vitro
Details: human, hela cells, % viability

Point of comparison: `Cc1cc(CN2CCN(C(=O)NCCc3ccccn3)CC2)on1` [CBK305637], viability at 28.5 h, 10 µM 80%. Against it:
- CCNC(=O)N(C)C1CCN(c2ncnc3ccccc23)CC1 [CBK305537] — higher, 110%
- CCc1nn(C)c2[nH]nc(NC(=O)Cc3csc(C)n3)c12 [CBK305538] — higher, 91.7%
- CC(C)(c1noc(C2CCOCC2)n1)S(=O)(=O)c1ccc(Br)cc1 [CBK305543] — higher, 93.5%
- Cc1cc(NC(=O)C2CCN(CC3CCCO3)CC2)no1 (centres unmarked) [CBK305544] — higher, 110%
- Cc1cc(NC(=O)C2CCN(C(=O)c3cnc(N)c(Cl)c3)CC2)no1 [CBK305545] — higher, 110%
- Cc1cc(C)n(CC(=O)NC2CCCOc3c(F)cccc32)n1 (centres unmarked) [CBK305553] — higher, 106%
- Cc1ncsc1C(=O)NCc1ccc(S(=O)(=O)N2CCCCC2)cc1 [CBK305556] — higher, 89.9%
- Cc1cc(CNC(=O)C2CC(=O)N(Cc3ccccn3)C2)ccc1F (centres unmarked) [CBK305557] — lower, 77.3%
- CCC(Oc1ccccc1F)C(=O)Nc1cc(C)on1 (centres unmarked) [CBK305558] — higher, 98.5%
- CCCS(=O)(=O)N1CCC(C(=O)NCc2ccc(Cl)cc2Cl)CC1 [CBK305559] — higher, 102%
- Cc1cc(N2CCN(C(=O)Cc3cccs3)CC2)nc(C(C)C)n1 [CBK305562] — higher, 88.1%
- COC(=O)c1cccc(OCC(O)Cn2nc(C)c(C)c(C#N)c2=O)c1 (centres unmarked) [CBK305563] — higher, 85.3%
- CN(C)C(CNC(=O)Nc1cccc(C(=O)NC2CC2)c1)c1cccs1 (centres unmarked) [CBK305565] — higher, 115%
- Cc1noc(CN2CCN(c3ccc4nnc(C(F)(F)F)n4n3)CC2)n1 [CBK305566] — higher, 93.3%
- CC(=O)Nc1ccc(OCC(O)Cn2ncc3ccccc3c2=O)cc1 (centres unmarked) [CBK305567] — higher, 105%
- O=C1NC2(CCCCCC2)C(=O)N1Cc1cnn(-c2ccccc2)n1 [CBK305571] — higher, 100%
- Cc1nn(-c2ccccc2)c(CN2C(=O)NC3(CCCC3)C2=O)c1C#N [CBK305572] — higher, 81.4%
- CCOC(=O)C1CCCN(C(=O)Cn2ncc(Cl)c(Cl)c2=O)C1 (centres unmarked) [CBK305573] — lower, 47.7%
- COc1ccc(OCC(O)Cn2c(CCCO)nc3ccccc32)cc1 (centres unmarked) [CBK305579] — higher, 101%
- COCCn1c(SC(C)C(=O)N2CCOCC2)nc2cc(Cl)ccc21 (centres unmarked) [CBK305580] — higher, 94.8%
- CCCN1CCC(NC(=O)Cn2nnc3ccccc3c2=O)CC1 [CBK305581] — higher, 102%
- CCCc1nnc(SCC(=O)Nc2ccc(CN3CCOCC3)cc2)[nH]1 [CBK305583] — higher, 82.4%
- O=C(NC1CCN(Cn2nnc3ccccc3c2=O)CC1)C1CC1 [CBK305584] — higher, 82.3%
- CCOC(=O)c1cnn2c(O)cc(CN3CCCCC3)nc12 [CBK305585] — higher, 101%
- CS(=O)(=O)NCC1CCCCN1Cc1ccc(-n2cccn2)cc1 (centres unmarked) [CBK305587] — higher, 91.9%
- CC(=O)N1CCN(CC(O)Cn2c3ccccc3c3ccccc32)CC1 (centres unmarked) [CBK305588] — higher, 102%
- O=C(Cn1nnc2ccccc2c1=O)NC1CCN2CCCCC12 (centres unmarked) [CBK305589] — higher, 105%
- Cc1cc(C)n(CC(=O)Nc2nc(CN3CCC(C)CC3)cs2)n1 [CBK305592] — higher, 101%
- COc1ncccc1CNC(=O)Cn1ccc(=O)[nH]c1=O [CBK305596] — higher, 99.9%
- COc1ccccc1-c1noc(CN2CCCC(C(F)(F)F)C2)n1 (centres unmarked) [CBK305598] — higher, 93.6%
- Cc1cc(NC(=O)CN(C)Cc2ccc(Br)cc2)on1 [CBK305599] — higher, 97.3%
- N#Cc1ccc(C(=O)NCC2(N3CCOCC3)CCSC2)cc1 (centres unmarked) [CBK305602] — higher, 95.3%
- CCc1nn2c(=O)cc(CNc3ccccc3CN(C)C(C)=O)nc2s1 [CBK305604] — higher, 114%
- CC(Cn1cccn1)NS(=O)(=O)c1ccc(N2CCCC2=O)cc1 (centres unmarked) [CBK305606] — higher, 83.7%
- CCC1CCCCN1C(=O)CCc1c(C)nc(-c2ccccc2)[nH]c1=O (centres unmarked) [CBK305608] — higher, 87.5%
- Cc1oc(NC(=O)CN(C)Cc2cccc(F)c2)c(C#N)c1C [CBK305609] — higher, 90.9%
- Cc1cc(NC(=O)CN2CCN(Cc3ccc4c(c3)CCO4)CC2)on1 [CBK305610] — higher, 92.5%
- Cc1nc(CN2CCN(C(=O)NCCc3cnn(C)c3)CC2)cs1 [CBK305614] — higher, 81.3%
- CC(=O)Nc1ccc(OCC(O)Cn2nc(-c3ccco3)oc2=O)cc1 (centres unmarked) [CBK305615] — higher, 97.9%
- Cc1cc(C)n2ncc(C(=O)N3CCCC3c3ccsc3)c2n1 (centres unmarked) [CBK305616] — higher, 94.6%
- CC(C)(C)OC(=O)N1CCCC(C(=O)NC2CCCc3ccccc32)C1 (centres unmarked) [CBK305617] — higher, 93.2%
- COc1cccc(CC(=O)NCC(c2cccs2)N2CCOCC2)c1 (centres unmarked) [CBK305621] — higher, 95.9%
- Cc1cc(NC(=O)CN(C)Cc2cnn(-c3ccccc3)c2)on1 [CBK305622] — higher, 92.5%
- CS(=O)(=O)NC1CCCN(c2nc(-c3ccsc3)nc3ccccc23)C1 (centres unmarked) [CBK305623] — higher, 99.1%
- CCOC(=O)c1cnn2c(O)cc(CN(Cc3cccs3)C3CC3)nc12 [CBK305625] — higher, 96.9%
- Cn1cc(-c2nc(C(=O)N3CCN(c4ncccn4)CC3)cs2)cn1 [CBK305626] — higher, 91%
- Cc1cc(CN2CCN(C(=O)NCc3cccnc3)CC2)on1 [CBK305627] — higher, 114%
- Cc1cc(C)n(CC(C)CNC(=O)Cc2csc(-c3ccco3)n2)n1 (centres unmarked) [CBK305628] — higher, 103%
- Cc1cc(C2CCCN2C(=O)c2cnn3c(C)cc(C)nc23)on1 (centres unmarked) [CBK305634] — higher, 109%
- Cc1ccccc1Nc1nc(N)nc(CN2CCCC2C(=O)N(C)C)n1 (centres unmarked) [CBK305638] — higher, 81%
- Cc1nc(CNC(=O)NC2CCCN(c3ncccn3)C2)cs1 (centres unmarked) [CBK305640] — higher, 95.3%
- Cc1cc(CN2CCN(C(C)c3nc(C(C)(C)C)no3)CC2)no1 (centres unmarked) [CBK305641] — higher, 97.7%
- Cc1ccc(CNC(=O)Cc2csc(N3CCCC3=O)n2)n1C [CBK305642] — higher, 98.6%
- CCN(Cc1ccc(C#N)cc1F)C(=O)NC(C)c1cnn(C)c1C (centres unmarked) [CBK305643] — higher, 108%
- Cc1cc(NC(=O)CN2CCN(Cc3ccccc3C#N)CC2)no1 [CBK305644] — lower, 77.3%
- O=C(NCc1cc[nH]n1)N1CCCN(Cc2cccs2)CC1 [CBK305645] — higher, 82%
- Cc1ccccc1Nc1nc(N)nc(CN2CCOCC2)n1 [CBK305646] — higher, 87.5%
- CCOC(=O)c1cnn2c(O)cc(CN3CCCC3c3ccsc3)nc12 (centres unmarked) [CBK305647] — higher, 96.1%
- CC(C)(C)OC(=O)N1CCN(C(=O)c2cc(-c3cccnc3)on2)CC1 [CBK305648] — higher, 88.7%
- Cc1cccc(CN2CCC(NC(=O)Cn3cnnn3)CC2)c1 [CBK305649] — higher, 95.9%
- CS(=O)(=O)N1CCc2cc(-c3csc(NCC(F)(F)F)n3)ccc21 [CBK305650] — higher, 95.4%
- CCN(CC1CCOC1)C(=O)c1cn2ccccc2n1 (centres unmarked) [CBK305653] — higher, 83.5%
- Cc1sc2ncn(CC(=O)NCc3nnc4n3CCC4)c(=O)c2c1C [CBK305654] — higher, 93.8%
- O=C(NCC(=O)N1CCCC1c1cccs1)c1cccc(Br)c1 (centres unmarked) [CBK305655] — higher, 99.2%
- Cn1cc(CCNC(=O)Nc2ccc(N3CCCC3)nc2)cn1 [CBK305659] — higher, 92.3%
- CCN(C(C)COC)S(=O)(=O)c1ccc(-n2ncc(Cl)c(Cl)c2=O)cc1 (centres unmarked) [CBK305662] — lower, 37%
- CCN1CCC(CNS(=O)(=O)c2ccc(N3CCCC3=O)cc2)CC1 [CBK305663] — higher, 101%
- Cn1cc(C(=O)NC2CCN(C(=O)c3ccc4c(c3)CCC4)CC2)cn1 [CBK305664] — higher, 97.8%
- Cc1cccc(CN2CCC(NC(=O)Cn3ccccc3=O)CC2)c1 [CBK305667] — higher, 111%
- Cc1ccc2c(c1)CCCN2C(=O)c1cnc2c(c1)c(C)nn2C [CBK305670] — higher, 96%
- Cc1nc(CNc2ccc3nnc(C(F)(F)F)n3n2)cs1 [CBK305674] — higher, 91.6%
- Cc1cc(C)n2ncc(C(=O)NCC(c3cccs3)N3CCCC3)c2n1 (centres unmarked) [CBK305675] — higher, 85.3%
- COC(=O)c1ccc(OCCn2nc(C)c(C)c(C#N)c2=O)cc1 [CBK305676] — lower, 69.5%
- CCOC(=O)c1cnn2c(O)cc(CN3CCc4ccccc4C3)nc12 [CBK305679] — higher, 97.2%
- CCOC(=O)c1cnn2c(O)cc(CN3CCc4sccc4C3)nc12 [CBK305680] — higher, 106%
- Cc1ccc(Cl)c(OC(C)C(=O)NCC2(N3CCOCC3)CCSC2)c1 (centres unmarked) [CBK305681] — higher, 110%
- COc1cccc(CC(=O)NCCNc2cccc(F)c2C#N)c1 [CBK305684] — lower, 78.5%
- N#Cc1cccc(OCC(=O)NCC2(N3CCOCC3)CCSC2)c1 (centres unmarked) [CBK305685] — higher, 86.3%
- O=C(Cn1cc(Br)ccc1=O)NC1CCN(Cc2ccccn2)CC1 [CBK305686] — higher, 92.2%
- CCCC(=O)Nc1ccc(-c2csc(CCN3CCOC3=O)n2)cc1 [CBK305687] — higher, 97%
- Cc1cc(NC(=O)C2CCN(c3ncccc3C#N)CC2)no1 [CBK305689] — higher, 88.3%
- Cc1nn(C)c(C)c1CCC(=O)OCc1cc(=O)n2ccccc2n1 [CBK305690] — higher, 90.8%
- Cn1cc(CCNC(=O)N2CCN(Cc3ccsc3)CC2)cn1 [CBK305692] — higher, 88.6%
- Cc1cc(C)n(CC(=O)NC(CC(=O)O)c2ccccc2Cl)n1 (centres unmarked) [CBK305695] — higher, 106%
- CCN(Cc1ccc(C#N)cc1F)C(=O)Nc1cnn(CCOC)c1 [CBK305697] — higher, 91.9%
- COc1ccc(CN2CCN(C(=O)c3ccc(C#N)cc3)CC2)cc1 [CBK305698] — higher, 99.6%
- Cc1ccc(C(=O)N2CCN(Cc3cc(=O)n4ccsc4n3)CC2)cn1 [CBK305700] — higher, 89.4%
- Cc1nn(CC(=O)N(C)Cc2cnn(C)c2)c(=O)c2ccccc12 [CBK305701] — higher, 103%
- Cc1[nH]c(=O)[nH]c(=O)c1CCC(=O)N(C)CC(=O)Nc1cccc(F)c1 [CBK305703] — higher, 99.6%
- O=C(Cn1ccc(=O)[nH]c1=O)NCc1cccnc1-n1cccn1 [CBK305705] — higher, 85%
- Cc1cc(NC(=O)Cn2cc(Br)cn2)no1 [CBK305706] — higher, 102%
